# Columns and labels:
# WWP1 = target: T1, WWP1 (Homo sapiens, UniProt Q9H0M0); test: WWP1 MALDI-MS ubiquitin depletion assay (auto-ubiquitination); type: biochemical; conditions: 30 min pre-incubation, 90 minutes at 37° C.
# T1 construct: purchased Ubiquigent 63-0034-025/30033/D
# Protocol: Modulators designed in these ways were tested for HECT domain E3 ligase activity in a MALDI TOF assay of auto-ubiquitination (De Cesare et al, Cell Chem. Biol, 2018, 25, 1117)
# UBE1 (E-305 Boston Biochem), UBE2D1 (E2-616 Boston Biochem), WWP1 (Ubiquigent #63-0034-025/30033/D), ubiquitin variants (Boston Biochem; ubiquitin: U-100H; WT-His6-Ub: U-530; K27R-His6-Ub:UM-HK27R; K27O-His6-Ub: UM-HK27O), alpha-cyano-4-hydroxycinnamic acid (CHCA), ATP, trifluoroacetic acid (Millipore Sigma, St. Louis, Mo.), 384-well round-bottom polypropylene microplates (781280, Greiner, Stonehouse, UK), 384-well Anchorchip MALDI targets and Peptide Calibration Standard II (Bruker Daltonics, Billerica, Mass.).
# Protocol: The WWP1 ubiquitin depletion assay consists of recombinant UBE1 (5 nM), UBE2D1 conjugating enzyme (60 nM) and WWP1 ligase (50 nM) in a 10 mM HEPES pH 8.0 containing 0.1 mg/mL BSA, 10 mM MgCl2, 1 mM ATP and 1500 nM ubiquitin. Screening was performed by dispensing 3.5 μL of an enzyme solution containing UBE1 (10 nM), UBE2D1 (120 nM), WWP1 (100 nM), ubiquitin ([…]) to a 384-well round bottom polypropylene plates followed by incubation at 37° C. for 30 min. Reactions were initiated by the addition of 3.5 μL of an ATP solution (2000 nM) then incubated at 37° C. for 90 minutes before being quenched by the addition of 5 μL of a 50 mM EDTA solution containing 750 nM of a ubiquitin labelled with a histidine expression tag (m/z=9460.0 Da).
# For detection of ubiquitin and the ubiquitin-6His internal standards, 50 nL of quenched reaction was dispensed onto a 384-well Anchorchip MALDI target plate (Bruker) pre-coated with a uniform layer of CHCA crystals immediately followed by 200 nL of a 3 mg/mL CHCA matrix solution (6 mg of CHCA dissolved in 0.7 mL of 100% ethanol and 1.3 mL of 0.31% aqueous TFA) using a TTP Labtech Mosquito liquid handler. Spectra for all reactions were acquired on a Bruker AutoFlex II in positive linear TOF mode from 1000 laser shots with ion suppression below 4000 Da. Spectra were analyzed for response using a centroid peak-fitting algorithm to quantify ubiquitin (m/z=8564.0 Da) and ubiquitin-6His (m/z=9460.0 Da) followed taking the ratio of intensities of ubiquitin and the ubiquitin-6His internal standard.
# For compound screening, 140 nL of diluted compound in 100% DMSO was added to the WWP1 enzyme solution and pre-incubated for 30 minutes prior to reaction initiation.
# DU-145 cells = test: Cellular proliferation assay (MTS) in DU-145 cells; type: cell-based; conditions: Homo sapiens, 72 hours of incubation, read-out: IC50 values for selected compounds in DU-145 cells
# Protocol: DU-145 cells were trypsinized, counted via Trypan blue method and resuspended in DMEM complete medium (10% FBS with Pen-strep antibiotics) as described in Lieu et al, Mol Cel Endorinol, 87:19-28, 1992. Cells were seeded at a density of 100 cells per well in 1001 volume of 96-well cell culture plate and were incubated overnight at 37° C. in 5% CO2 incubator. The next day, cells were given fresh media and the test compounds were added in different concentrations. After 72 hours of incubation, MTS reagent (procured from Promega) was added to the cells and they were incubated for an additional 2 hours. Finally, the plates read in the absorbance mode at 490 nm using an ELISA plate reader (Perkin Elmer Victor X3 plate reader). The % growth values were calculated as [(T−T0)/(C−T0)]×100, where T0 is the OD of cells at the time of compound addition, C is the vehicle control, T is the OD of the test concentrations at 72 hours. Percentage inhibition values were calculated using 100−([(T−T0)/(C−T0)]×100). IC50 values were calculated in graph pad prism software using dose response curve nonlinear regression method.
# [1] = test system: phosphorylated AKT and phosphorylated Ribosomal Protein S6; test: Western blot of AKT and S6 phosphorylation in Hs578T cells; type: cell-based, human; conditions: 48 hours, indicated concentrations
# Protocol: Hs578T cells (human triple negative breast cancer) were treated with the indicated concentration of COMPOUND 1 for 48 hours prior to harvesting. The “0” concentration is DMSO only (0.5%, same as was used for compound doses). […] Analysis occurred via western blot using the indicated antibodies. Quantification by densitometry of the bands from the western blot are presented for phosphorylated AKT/Total AKT and phosphorylated Ribosomal Protein S6/Total Ribosomal Protein S6. COMPOUND 1 reduced both AKT and S6 phosphorylation relative to their respective total protein levels.
# The data presented here are consistent with the previous replicate in Hs578T cells, and the observation is preserved in another TNBC cell line, BT-20. COMPOUND 1 reduces the phospho-AKT/vinculin loading control and phospho-S6/total S6 ratios. Methods are the same as the previous replicate, using the indicated doses.
# Hs578T cells (human triple negative breast cancer) were treated with the indicated concentration of COMPOUND 6 for 48 hours prior to harvesting. The “0” concentration is DMSO only (0.5%, same as was used for compound doses). […] Analysis occurred via western blot using the indicated antibodies.
# The data presented here are consistent with the previous replicate in Hs578T cells. COMPOUND 6 reduces the phospho-AKT/vinculin loading control and phospho-S6/total S6 ratios. Methods are the same as the previous replicate, using the indicated doses.
# Hs578T cells (human triple negative breast cancer) were treated with the indicated concentration of COMPOUND 7 for 48 hours before harvesting. The “0” concentration is DMSO only (0.5%, same as was used for compound doses). […] Analysis occurred via western blot using the indicated antibodies.
# The data presented here are consistent with the previous replicate in Hs578T cells. COMPOUND 7 reduces the phospho-S6/vinculin loading control ratio. Methods are the same as the previous replicate, using the indicated doses.
# Hs578T cells (human triple negative breast cancer) were treated with the indicated concentration of COMPOUND 8 for 48 hours and then harvested. The “0” concentration is DMSO only (0.5%, same as was used for compound doses). […] Analysis occurred via western blot using the indicated antibodies.
# T1 sequence (Q9H0M0 whole entry): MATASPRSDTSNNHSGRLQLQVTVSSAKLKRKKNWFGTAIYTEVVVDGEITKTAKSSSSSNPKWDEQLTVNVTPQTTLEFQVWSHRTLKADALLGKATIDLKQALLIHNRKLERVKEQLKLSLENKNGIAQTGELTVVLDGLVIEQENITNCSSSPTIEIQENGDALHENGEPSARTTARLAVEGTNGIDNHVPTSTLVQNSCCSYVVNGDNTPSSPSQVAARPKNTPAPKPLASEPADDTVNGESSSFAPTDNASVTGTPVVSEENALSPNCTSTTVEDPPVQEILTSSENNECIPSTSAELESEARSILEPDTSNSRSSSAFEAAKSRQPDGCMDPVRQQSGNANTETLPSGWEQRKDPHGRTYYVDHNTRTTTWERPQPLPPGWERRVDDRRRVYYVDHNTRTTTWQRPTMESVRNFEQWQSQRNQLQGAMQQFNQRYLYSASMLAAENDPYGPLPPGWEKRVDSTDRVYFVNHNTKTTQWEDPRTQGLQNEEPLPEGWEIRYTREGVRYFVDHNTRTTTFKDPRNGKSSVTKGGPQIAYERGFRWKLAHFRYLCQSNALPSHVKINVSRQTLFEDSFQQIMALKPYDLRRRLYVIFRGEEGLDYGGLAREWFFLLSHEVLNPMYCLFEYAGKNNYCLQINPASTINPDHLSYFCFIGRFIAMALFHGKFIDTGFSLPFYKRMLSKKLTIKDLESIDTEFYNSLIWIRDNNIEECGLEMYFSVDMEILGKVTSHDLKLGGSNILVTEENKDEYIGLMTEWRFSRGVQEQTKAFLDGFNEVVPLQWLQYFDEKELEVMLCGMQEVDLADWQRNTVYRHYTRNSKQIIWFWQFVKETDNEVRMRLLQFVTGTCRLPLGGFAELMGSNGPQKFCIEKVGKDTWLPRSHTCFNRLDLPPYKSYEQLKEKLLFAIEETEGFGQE
Structure (SMILES),IC50 (WWP1) [µM],IC50 (DU-145 cells) [µM],AKT phosphorylation (relative to total AKT or vinculin loading control) [1],S6 phosphorylation (relative to total S6 or vinculin loading control) [1]
"C#CCN(CCO)C(=O)c1ccc2c(Cc3c[nH]c4ccccc34)c[nH]c2c1 [Compound 7, 3-((1H-indol-3-yl)methyl)-N-(2-hydroxyethyl)-N-(prop-2-yn-1-yl)-1H-indole-6-carboxamide]",15,5.01,reduced,reduces
"C#CCNC(=O)c1ccc2c(Cc3c[nH]c4ccccc34)c[nH]c2c1 [Compound 6, 3-((1H-indol-3-yl)methyl)-N-(prop-2-yn-1-yl)-1H-indole-6-carboxamide]",32,8.08,reduces,reduces
"C#Cc1ccc2c(C=O)cn(-c3ccccc3)c2c1 [Compound 1, 6-ethynyl-1-phenyl-1H-indole-3-carbaldehyde]",5,13.5,reduces,reduces

# Source: patent US20230227406A1, “MODULATORS OF E3 LIGASES” (Rekindle Therapeutics Inc., priority 2020, published 2023)
